# Measurements published in paper PMC6961122 (Bioorganic & Medicinal Chemistry, 2020).
# Like-named read-outs stand apart in the source and are kept apart here.
# Assays:
# U87 cells [1] = experiment: Cell viability assay (PrestoBlue, 5 d) in U87 glioma cells; type: cell-based; conditions: PrestoBlue day 5; for EC50 in U87 cells: repeat for most potent hits, 7-point half-log dose-response 1 to 1,000 nM; for activity (EC50) of novel compounds in U87, in words: 1 to 30,000 nM, Fig. 7
# T98 cells [2] = experiment: Cell viability assay (PrestoBlue, 5 d) in T98 glioma cells; type: cell-based; conditions: PrestoBlue day 5; for EC50 in T98 cells: repeat for most potent hits, 7-point half-log dose-response 1 to 1,000 nM; for activity (EC50) of novel compounds in T98, in words: 1 to 30,000 nM, Fig. 7
# G317 spheroids = experiment: 3D spheroids assay, G317 spheroid area; type: cell-based, human; conditions: pre-formed spheroids; 0.01–10 µM for 8 days
# Experimental: To test the compounds under conditions that better represent the tumour microenvironment, G317 cells were cultured in 3D and pre-formed spheroids treated with eCF309, eCF324 and the positive controls at a range of concentrations (0.01–10 µM) for 8 days.
# Fig. 6 (a) Images of G317 spheroids on day 10. Spheroids were treated with 10 μM of each inhibitor during 8 days, images were acquired using ImageXpress. Scale bar = 100 μm. (b) Area of G317 patient derived spheroids at day 10. Spheroid area was calculated with a custom pipeline on CellProfiler. Data are mean ± SEM of 6 independent spheroids from two different cultures, ***P < 0.001, **P < 0.01 compared to DMSO controls (two-way ANOVA, Tukey post hoc test).
# 4 × 10^3 G317 cells were seeded in an ultra-low attachment round bottom 96-well plate, centrifuged at 1000g, 4 °C for 10 min and allowed to form spheroids for 2 days. Spheroids were then incubated with the inhibitors at 4 concentrations ranging from 10 nM to 10 µM. Spheroids were imaged at day 10 using ImageXpress (Molecular Devices LLC) and processed with ImageJ.[25] Spheroid area was calculated with a custom pipeline on CellProfiler.[26]
# [3] = test system: G317 patient-derived glioma cells; experiment: Growth inhibition (GI50, PrestoBlue, 5 d) in patient-derived glioma cells G317; type: cell-based, human; conditions: 5 d treatment, growth related to t=0 and DMSO, extrapolated from sigmoidal dose-response curve; for GI50: read-out: GI50 (50% of growth inhibition) in G317
# Experimental: Cells were treated with each inhibitor at concentrations ranging from 1 to 10,000 nM and PrestoBlue assay used at day 5 to detect viability. […] Data are means ± SEM of 3 independent experiments in triplicates.
# (§1) U87 and T98 cells (ATCC) were cultured in DMEM (Gibco), supplemented with 10% (v/v) FBS (Gibco) and 2 mM L-Glutamine (Gibco) in a standard incubator (95% humidity, 5% CO2), and subcultured twice per week through trypsinization. G317 patient-derived glioma cells were established by the Glioma Cellular Genetics Resource (gcgr.org.uk) funded by Cancer Research UK. Ethics approval for use of patient-derived cells and early access confirmation to reagents from the Glioma Cellular Genetics Resource assured that all ethical issues according to UK legislation are fulfilled. G317 were cultured in DMEM/HAMS-F12 (Sigma) supplemented with 1.5 g L^−1 D-(+)-Glucose (Sigma), MEM non-essential aminoacids (Gibco), 0.015% (w/v) Penicillin-Streptomycin (Gibco), 0.012% (w/v) BSA (Gibco), 0.1 mM β-mercaptoethanol (Gibco), B27 (Gibco) and N2 supplements (Gibco). Cells were detached using accutase solution (Sigma) and subcultured once per week. Before adding to the cells, medium was supplemented with 10 ng ml^−1 mouse EGF (Preprotech), 10 ng ml^−1 human FGF (Preprotech), and 1 µg ml^−1 Laminin (Sigma).
# (§2) 1 × 10^3 U87 cells/well, 5 × 10^2 T98 cells/well, 1 × 10^4 G317 cells/well, 1 × 10^4 HBVP cells/well and 1 × 10^4 bEnd3 cells/well were seeded in 96-well plates. After 48 h in culture, cells were treated with the inhibitors for 5 d. For GI50 determination, the viability of a triplicate sample of each experiment before treatment was measured with the PrestoBlue Reagent (Invitrogen), to establish a basepoint 0% of growth. […] ZIP Synergy scores were obtained with Synergy finder.[22] Viability percentage, EC50 and GI50 values were obtained using GraphPad Prism version 8.0.0 for Windows, GraphPad Software, San Diego, California USA, www.graphpad.com.
# Table S2 . GI 50 values (nM) calculated for eCF309 , eCF311 , eCF312 , eCF324 , eCF325 and controls
# Cells were treated with 10, 3, 1 µM,
# 300, 100, 30, 10, 3, 1, 0 nM of each inhibitor during 5 d. Cell growth (PrestoBlue) was related to t=0 (before
# drug treatment), and GI 50 values were extrapolated from their corresponding sigmoidal dose-response curve
# T98 cells [4] = experiment: Cell viability assay (PrestoBlue, 5 d) in T98 glioma cells; type: cell-based; conditions: library screen, 5 d treatment, mean of three independent experiments in triplicates, read-out: EC50 T98 ± SEM
# Experimental: (§3) The antiproliferative activity of a total of 100 compounds was tested against U87 and T98 glioma cell lines, using TMZ[3] and the Topoisomerase I inhibitor SN-38[18] as positive controls. Cells were treated with the library members for 5 d at three different concentrations (3, 30 and 300 µM) and cell viability determined using the PrestoBlue reagent. Half-maximal effective concentration (EC50) values were calculated from the corresponding dose-response curves and plotted in Fig. 2a as a heatmap to facilitate data analysis, with black meaning no activity and dark to light green to yellow transitions indicating decreasing EC50 values (=increasing potencies). Table 1 of the Suppl. Data contains the corresponding EC50 values ± SEM.
# (§4) INK128 and SN-38 were used as positive controls. […] Structurally, these derivatives differed in the size of the alkyl group of the N1 position and the presence or absence of an oxygen atom in that moiety (see Suppl. Data).
# as §1, §2
# PI3Kα = test system: PI3Kα; parameters: method as in earlier work; conditions: recombinant kinase; previously obtained kinase profiling data; cited from earlier work
# U87 cells [5] = experiment: Cell viability assay (PrestoBlue, 5 d) in U87 glioma cells; type: cell-based; conditions: library screen, 5 d treatment, mean of three independent experiments in triplicates, read-out: EC50 U87 ± SEM
# Experimental: as §3, §4, §1, §2
# mTOR = test system: mTOR; parameters: method as in earlier work; conditions: recombinant kinase; previously obtained kinase profiling data; cited from earlier work
# [6] = Homo sapiens, Glioma cell, 120 h
Compound,EC50 (T98 cells [4]) [µM],EC50 (U87 cells [5]) [µM],other results
"2-(1H-Indazol-4-yl)-6-(4-methanesulfonyl-piperazin-1-ylmethyl)-4-morpholin-4-yl-thieno[3,2-d]pyrimidine [GDC0941, reference compound]",,,"activity (EC50) in U87 cells, in words (U87 cells [1]; 1 to 1,000 nM, Fig. 3): low µM activity; activity (EC50) against T98, in words (T98 cells [2]; 1 to 1,000 nM, Fig. 3): sub-µM activity"
"CC(C)n1nc(-c2ccc3oc(N)nc3c2)c2c(N)ncnc21 [INK128, sapanisertib, reference compound]",,,"reduction of G317 spheroid size (area at day 10) (G317 spheroids): most potent antiproliferative activities; GI50 [3, 6]: 0.0093 µM"
"CCc1c2c(nc3ccc(O)cc13)-c1cc3c(c(=O)n1C2)COC(=O)[C@]3(O)CC [SN-38, reference compound]",,,"GI50 [3, 6]: 0.0129 µM"
CCOC(Cn1nc(-c2ccc3oc(N)nc3c2)c2c(N)ncnc21)OCC [eCF309],,,"GI50 [3]: 0.0649 µM; GI50 [3, 6]: 0.065 µM; EC50 (T98 cells [4]; Homo sapiens, T98, 120 h): 0.128 ± 0.022 µM; IC50 (PI3Kα): 0.981 µM; EC50 (U87 cells [5]; Homo sapiens, U-87 MG, 120 h): 0.129 ± 0.019 µM; IC50 (mTOR): 0.015 µM"
Nc1nc2cc(-c3nn(CC4OCCO4)c4ncnc(N)c34)ccc2o1 [eCF311],,,"GI50 [3, 6]: 0.147 µM; EC50 (T98 cells [4]; Homo sapiens, T98, 120 h): 0.323 ± 0.087 µM; EC50 (U87 cells [5]; Homo sapiens, U-87 MG, 120 h): 0.392 ± 0.058 µM"
COC(Cn1nc(-c2ccc3oc(N)nc3c2)c2c(N)ncnc21)OC [eCF312],,,"GI50 [3, 6]: 0.0369 µM; EC50 (T98 cells [4]; Homo sapiens, T98, 120 h): 0.08 ± 0.021 µM; EC50 (U87 cells [5]; Homo sapiens, U-87 MG, 120 h): 0.116 ± 0.021 µM"
Nc1nc2cc(-c3nn(CC4CCCO4)c4ncnc(N)c34)ccc2o1 (centres unmarked) [eCF325],,,"GI50 [3, 6]: 0.0464 µM; EC50 (T98 cells [4]; Homo sapiens, T98, 120 h): 0.105 ± 0.023 µM; EC50 (U87 cells [5]; Homo sapiens, U-87 MG, 120 h): 0.138 ± 0.023 µM"
Nc1nc2cc(-c3nn(C[C@H]4CCCO4)c4ncnc(N)c34)ccc2o1 [eCF333],,,"EC50 in U87 cells (U87 cells [1]): identical dose response curves to that of eCF325; GI50 (50% of growth inhibition) in G317 [3]: identical dose response curves to eCF325; EC50 (T98 cells [4]; Homo sapiens, T98, 120 h): 0.088 ± 0.014 µM; EC50 (U87 cells [5]; Homo sapiens, U-87 MG, 120 h): 0.131 ± 0.01 µM; EC50 in T98 cells (T98 cells [2]): identical dose response curves to that of eCF325"
Nc1nc2cc(-c3nn(C[C@@H]4CCCO4)c4ncnc(N)c34)ccc2o1 [eCF334],,,"EC50 in U87 cells (U87 cells [1]): identical dose response curves to that of eCF325; GI50 (50% of growth inhibition) in G317 [3]: identical dose response curves to eCF325; EC50 (T98 cells [4]; Homo sapiens, T98, 120 h): 0.1 ± 0.018 µM; EC50 (U87 cells [5]; Homo sapiens, U-87 MG, 120 h): 0.138 ± 0.013 µM; EC50 in T98 cells (T98 cells [2]): identical dose response curves to that of eCF325"
CNc1ncc2c(-c3ccc4oc(N)nc4c3)nn(CC3CCCC3)c2n1 [eDB001],,,"activity (EC50) of novel compounds in U87, in words (U87 cells [1]): high activity; activity (EC50) of novel compounds in T98, in words (T98 cells [2]): high activity"
Nc1ncnc2c1c(-c1cnc3[nH]ccc3c1)nn2CC1CCCC1 [eDB002],,,"activity (EC50) of novel compounds in U87, in words (U87 cells [1]): high activity; activity (EC50) of novel compounds in T98, in words (T98 cells [2]): high activity"
CNc1ncc2c(-c3ccc(N4CCNCC4)nc3)nn(Cc3cn(-c4ccccc4)nn3)c2n1 [eSM139],8.6 ± 3.39,6.09 ± 1.39,
CNc1ncc2c(-c3ccc(N4CCNCC4)nc3)nn(Cc3cn(-c4ccc(Cl)cc4)nn3)c2n1 [eSM143],3.02 ± 0.568,3.06 ± 0.833,
CNc1ncc2c(-c3cnc4[nH]ccc4c3)nn(Cc3cn(Cc4ccccc4)nn3)c2n1 [eSM145],9.11 ± 1.67,14.2 ± 0.557,
CNc1ncc2c(-c3ccc(N(C)C)nc3)nn(Cc3cn(Cc4ccccc4)nn3)c2n1 [eSM146],> 30,> 30,
CNc1ncc2c(-c3ccc(N4CCN(C(=O)NC(C)(C)C)CC4)nc3)nn(CC3CCCC3)c2n1 [eSM149],> 30,> 30,
CNc1ncc2c(-c3ccc(N4CCN(C(=O)C(C)(C)C)CC4)nc3)nn(CC3CCCC3)c2n1 [eSM150],10.1 ± 3,22.7 ± 9.53,
CNc1ncc2c(-c3ccc(N4CCN(C(=O)C(C)(C)C)CC4)nc3)nn(Cc3cn(Cc4ccccc4)nn3)c2n1 [eSM153],> 30,> 30,
CCN1CCN(c2ccc(-c3nn(Cc4cn(Cc5ccccc5)nn4)c4nc(NC)ncc34)cn2)CC1 [eSM155],> 30,> 30,
CNc1ncc2c(-c3ccc(N4CCN(C)CC4)cc3)nn(CC3CCCC3)c2n1 [eSM156],1.77 ± 0.865,8 ± 3.32,
CNc1ncc2c(-c3ccc(N4CCN(C)CC4)nc3)nn(CC3CCCC3)c2n1 [eSM157],1.71 ± 0.512,7.28 ± 2.7,
COc1ccc(-c2nn(CC3CCCC3)c3ncnc(N)c23)cc1OC [eSM204],6.58 ± 1.47,8.56 ± 0.564,
COc1ccc(-c2nn(CC3CCCC3)c3ncnc(N)c23)cc1 [eSM205],11.9 ± 6.5,14.3 ± 6.14,
NC(=O)c1ccc(-c2nn(CC3CCCC3)c3ncnc(N)c23)cc1 [eSM207],21.3 ± 3.28,19.9 ± 6.03,
Nc1ncnc2c1c(-c1ccoc1)nn2C1CCCC1 [eSM209],15.6 ± 1.45,23.6 ± 2.51,
Nc1ncnc2c1c(-c1ccc(C(F)(F)F)cc1)nn2CC1CCCC1 [eSM210],18.8 ± 2.69,25 ± 3.15,
Nc1ncnc2c1c(-c1ccc(F)cc1)nn2CC1CCCC1 [eSM211],24.6 ± 3.25,> 30,
Nc1ncnc2c1c(-c1ccc(-c3ccccc3)cc1)nn2CC1CCCC1 [eSM212],22.8 ± 3.13,> 30,
